Test results from PubChem BioAssay (NCI).
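Following 48 hours of exposure in 96-well plates, responses at five concentrations were used to interpolate endpoints linearly. GI50 is the concentration that inhibits growth by half. TGI marks complete inhibition of growth.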 Peptide text beside a SMILES is read from it. * marks the point of attachment. Cbz = O=C(OCc1ccccc1)*

Assays:
Assay in all cases: inhibition of tumour cell growth, NCI panel, 48 h
HCT-116 colon = tested on: HCT-116 colon
HT29 colon = tested on: HT29 colon
KM12 colon = tested on: KM12 colon
MOLT-4 leukemia = tested on: MOLT-4 leukemia
NCI-H226 lung = tested on: NCI-H226 lung
NCI-H460 lung = tested on: NCI-H460 lung
OVCAR-4 ovarian = tested on: OVCAR-4 ovarian
OVCAR-5 ovarian = tested on: OVCAR-5 ovarian
SK-MEL-28 melanoma = tested on: SK-MEL-28 melanoma
CAKI-1 renal = tested on: CAKI-1 renal
HCC-2998 colon = tested on: HCC-2998 colon
SK-MEL-2 melanoma = tested on: SK-MEL-2 melanoma
TK-10 renal = tested on: TK-10 renal
MDA-MB-231 breast = tested on: MDA-MB-231 breast
PC-3 prostate = tested on: PC-3 prostate
T-47D breast = tested on: T-47D breast

Row | Compound | TGI (HCT-116 colon) [µM] | TGI (HT29 colon) [µM] | TGI (KM12 colon) [µM] | TGI (MOLT-4 leukemia) [µM] | TGI (NCI-H226 lung) [µM] | TGI (NCI-H460 lung) [µM] | TGI (OVCAR-4 ovarian) [µM] | TGI (OVCAR-5 ovarian) [µM] | TGI (SK-MEL-28 melanoma) [µM] | TGI (CAKI-1 renal) [µM] | TGI (HCC-2998 colon) [µM] | TGI (SK-MEL-2 melanoma) [µM] | TGI (TK-10 renal) [µM] | TGI (MDA-MB-231 breast) [µM] | TGI (PC-3 prostate) [µM] | TGI (T-47D breast) [µM] | GI50 (TK-10 renal) [µM]
1 | CC1(C)OC2C(O1)[C@H]1OC(C(Cl)(Cl)Cl)=N[C@H]1C(I)[C@H]2N1C(=O)c2ccccc2C1=O (stereo not given in full) | > 100 | > 100 | > 100 | 58.3 | > 100 | > 100 | 55.5 | > 100 | > 100 |  |  |  |  |  |  |  | 
2 | O=C(c1nc2ccc(Cl)cc2[nH]c1=O)C(O)c1cccc([N+](=O)[O-])c1 (stereo not given) | > 100 | 40.4 | > 100 | > 100 | > 100 | > 100 | > 100 | > 100 | 61.5 | > 100 | > 100 | > 100 | > 100 |  |  |  | 
3 | COc1ccc(/C=N/NC(=O)CSc2nc(-c3ccccc3)c(-c3ccccc3)[nH]2)cc1OC | 87.2 | 60.3 | 34 | 37.6 | 80.4 | 91.6 | 87.4 | 64 | 89.8 | 72.9 |  | 39.1 | > 100 |  |  |  | 
4 | NC(=S)N/N=C(/CCN1CCCC1)CC(C1=C(O)C2=CCCCC2OC1=O)c1ccccc1 (stereo not given) | > 100 | > 100 | > 100 |  | > 100 | > 100 | > 100 | > 100 |  | > 100 | > 100 | > 100 | > 100 |  |  |  | 
5 | COc1ccc([C@H]2[C@@H]3CCc4ccccc4C3=NN2C(N)=S)cc1OC | > 100 | > 100 | > 100 | > 100 | > 100 | > 100 | > 100 | > 100 | > 100 |  | > 100 | > 100 | > 100 |  |  |  | 
6 | C[C@@H]1C[C@@H]2C(=O)N(c3ccccc3)C(=O)[C@@H]2c2[nH]c3ccc(Br)cc3c21 | > 100 |  | 75.4 | > 100 |  | > 100 | 57.9 | > 100 | > 100 | > 100 | > 100 | > 100 | > 100 |  |  |  | 
7 | O=C(c1nc2ccc(Cl)cc2[nH]c1=O)C(O)c1ccco1 (stereo not given) | > 100 | > 100 |  | > 100 | > 100 | > 100 | > 100 | > 100 | > 100 | > 100 | > 100 | > 100 | > 100 |  |  |  | 
8 | FC(F)(F)c1nc2c(ccc3[nH]c4c(-c5ccccc5)nccc4c32)[nH]1 | > 100 | > 100 | > 100 | > 100 | > 100 | > 100 | > 100 | > 100 | > 100 | > 100 | > 100 | > 100 | > 100 |  |  |  | 
9 | CN1CCN(c2ccc3nc(-c4ccc5nc(CCCc6ccc(N(CCCl)CCCl)cc6)[nH]c5c4)[nH]c3c2)CC1 | > 100 | > 100 | > 100 | > 100 | > 100 | > 100 | > 100 | > 100 | > 100 | > 100 | > 100 | > 100 | > 100 | > 100 | > 100 | > 100 | 
10 | c1cc2nnc1SCCSCCCSCCS2 | > 100 | > 100 | > 100 | > 100 | > 100 | > 100 | > 100 | > 100 | > 100 | > 100 | > 100 | > 100 | > 100 | > 100 | > 100 | > 100 | 
11 | O=C(Cc1ccccc1)N/N=C(/c1nc2ccc([N+](=O)[O-])cc2[nH]c1=O)C(O)c1ccco1 (stereo not given) | > 100 | > 100 | > 100 | > 100 | > 100 | > 100 | > 100 | > 100 | > 100 | > 100 | > 100 | > 100 | > 100 |  |  |  | 
12 | Cc1ccc(C2SCc3nc4ccccc4n32)cc1 (stereo not given) | 14 | 79 | 20.6 | 15.3 | 6.55 | > 100 | 92.8 | > 100 | > 100 | 49.7 | > 100 | 5.56 | 25.1 | > 100 | 21.2 | > 100 | 
13 | CC(=O)OCc1ncccc1C(OC(C)=O)OC(C)=O | > 100 | > 100 | > 100 | > 100 |  | > 100 | > 100 | > 100 | > 100 | > 100 |  | > 100 | > 100 |  |  |  | 
14 | CCOC(=O)CCC(NC(=O)CNC(=O)CNC(=O)C(CCC(=O)OCC)NC(=O)C(CCC(=O)OCC)NC(=O)C(CCC(=O)OCC)NC(=O)OCc1ccccc1)C(=O)NC(CCC(=O)OCC)C(=O)NC(CCC(=O)OCC)C(=O)OCC (stereo not given) (Cbz-E(OEt)E(OEt)E(OEt)GGE(OEt)E(OEt)E(OEt)-OEt; configuration not given here) | > 75 | > 75 | > 75 | > 75 |  | > 75 | > 75 | > 75 | > 75 | > 75 |  | > 75 | > 75 | > 75 | > 75 |  | 
15 | COc1ccc(/C=C2/C(=O)N(/C=C3\C(=O)Oc4ccccc4C3=O)C(=NC(C)=O)N2C)cc1OC | > 100 | > 100 | > 100 | > 100 | > 100 | > 100 | > 100 | > 100 | > 100 | > 100 | > 100 | > 100 | > 100 | > 100 | > 100 | > 100 | > 100
16 | O=C1NC(=O)C23C(=O)NC(=O)C12C1C=CC3CC1 (stereo not given) | > 10 | > 10 | > 10 | > 10 | > 10 | > 10 | > 10 |  | > 10 | > 10 | > 10 | > 10 | > 10 | > 10 | > 10 | > 10 | 
